Entries after “also recorded” stand apart in the source; their conditions may differ.
Assays:
[1] = tested on: arterial pressure of conscious SHR rats; test: Arterial pressure in conscious SHR rats after i.c.v. or i.v. injection; assay type: in vivo, rat
Description: These experiments are carried out in a 12-week-old SHR rats (300-350 g). During the operation, the animals are anaesthetized for a limited time (3 hours) with sodium pentobarbital (50 mg/kg intraperitoneal, Laboratoire Sentravet, Plancoët, France) The experiments are carried out a minimum of 24 hours after the operation.
The injections are carried out with the aid of a cannula positioned in the lateral ventricle under stereotaxy, and the arterial pressure is measured continuously, via an invasive route, after catheterizing the femoral artery. The catheter is exteriorized at the level of the animal's neck, and is linked to a fixing system which allows the rat to move around freely in its cage.
A first catheter is positioned in the femoral vein in order to carry out the injections, a second catheter is introduced into the femoral artery in order to be able to measure arterial pressure continuously. Both catheters are then exteriorized as indicated above.

[2] = tested on: formation of angiotensin III from [3H]AngII in hypothalamus; test: In vivo metabolism of tritiated AngII/AngIII in murine hypothalamus after i.c.v. injection; design: species or system mouse; settings: mice
Description: Male Swiss mice (available from the IFFA Credo Institute) weighing 18 to 20 grams are maintained under artificial light (12 hours in bright phase - 12 hours in half-light) and have food and water available ad libitum. The experiments are carried out between 9 o'clock and 11 o'clock in the morning. The drugs are administered into the lateral ventricle by the intracerebroventricular route (i.c.v) at an amount of 5 μl per mouse according to the method of Haley and McCormick (Br. J. Pharmacol. 12, 12-15).
For each experiment, six to eight mice are used for each of the conditions. A mixture of 2×10^6 cpm of [^3H]Ang II and 30 μg of unlabelled Ang II is administered in a 5 μl volume, alone or together with EC33 (30 μg). The inhibitors are dissolved in an isotonic saline solution adjusted to a pH of 7.4 with 0.01 M NaOH solution. At various times after the injection, the mice are decapitated, their brains are removed and their hypothalami are dissected on ice and homogenized by sonication (ultrasons, Anemasse, France) in 10 volumes of a 0.1 M HCl solution cooled in ice. […]
The respective amounts of labelled angiotensins II and III present in the hypothalamus are determined according to the protocol of Ledwith et al. (Anal. Biochem. 213, 349-355). […] The F1 and F2 fractions are then analysed by HPLC to determine their respective content of tritiated angiotensin II and tritiated angiotensin III.
With the aim of an HPLC analysis, the F1 and F2 fractions are initially concentrated by extraction on a C18 Sep-pak® Cartridges device (Waters). […] After elution on Sep-pak®, the respective F1 and F2 fractions are freeze-dried, dissolved in 0.2 ml of a 0.01 M acetic acid solution, with 20 ng of angiotensin II and of angiotensin III as internal standard, and analysed by HPLC.
The HPLC analysis is carried out using an H Hypersil ODS®-3 μm reverse phase column (Shandon, Pittsburgh) heated to 45° C., then with an isocratic elution at a flow rate of 0.6 ml per minute. […] Their radioactivity content is estimated with a beta counter. […]

[3] = tested on: arterial pressure of WKY normotensive and SHR hypertensive rats; test: Mean arterial pressure in anaesthetized WKY and SHR rats after i.c.v. injection; assay type: in vivo, rat; settings: for maximum hypotensive effect (change in arterial pressure): 100 μg i.c.v.; for antagonist effect on PC18-induced increase in arterial pressure: Losartan 10 μg pretreatment, PC18 60 μg
Description: The rats used are male Sprague-Dawley rats weighing 200 to 250 grams; some of them are 11-week-old rats (SHR). Wistar Kyoto normotensive rats are also used as controls. The animals are kept for one week with alternating 12-hour periods of light and half-light, and have water and food available ad libitum. For each experiment, the SHR and WKY rats are weighed, and their arterial pressure and cardiac rhythm are continuously recorded via an invasive route after inserting a catheter (PE 50) into the femoral artery. The catheter is linked to a pressure sensor (COBE) and connected to a signal processor which is linked to an amplifier. The computer system comprises a MacLab interface system and application software (Chart and Scope) which allows data acquisition and calculation through a Macintosh computer.
These experiments are carried out in Wistar Kyoto (WKY) normotensive rats or spontaneously hypertensive rats (SHR 12 weeks old).
The animals are anaesthetized with Inactin (5-ethyl-2-(1′-methylpropyl)-2-thiobarbita), this being an anaesthetic which is used regularly in renal or cardiovascular physiology experiments. Its properties are to cause a very slight drop in arterial pressure, which is visible only in SHR rats, and especially to allow a stable basal arterial pressure to be maintained throughout the experiment.
The mean arterial pressure (systolic+diastolic) is measured continuously, via an invasive route, after catheterizing the femoral artery. The peptides or the inhibitors, are injected via the intracerebroventricular (i.c.v.) route with the aid of a cannula positioned in the lateral ventricle under stereotaxy (Stereotaxic Atlas; G. Paxinos and C. Watson, Academic Press, 1986).
The experiments are carried out on groups of 4 to 20 individually analysed animals. The results on batches of control animals and treated animals were compared with the aid of an analysis of variance (ANOVA), followed by an unpaired Student's test.
An injection of angiotensin II is carried out combined, where appropriate, with a consecutive injection of EC33.
In accordance with the protocol described in Example 3, AngIII (10 ng) in the presence of 60 μg of PC18 is injected into SHR rats. As a control test, an injection of PC18 alone is carried out.

[4] = tested on: aminopeptidase A (APA); test: Measurement of APA activity in vitro (GluβNa hydrolysis, purified APA); settings: APN versus APA
Description: In vitro, in the presence of calcium ions, APA hydrolyses α-L-glutamyl-β-naphthylamide (gluβNa) to glutamate and β-naphthylamine (βNa). A diazotation reaction in acid medium makes it possible to reveal the β-naphthylamine by formation of a violet-coloured complex: spectrophotometric measurement then makes it possible to know the amount of complex formed and, by reference to a standard curve produced with increasing concentrations of β-naphthylamine, to deduce therefrom the enzymatic activity of the sample.
The GluβNa substrate and the β-naphthylamine (Bachem) are dissolved in DMSO (dimethyl sulphoxide) and 0.1 N HCl respectively, and conserved at −20° C. at a concentration of 10^−2 M. The diazotation reaction is carried out in the presence of sodium nitrite (87 mM), ammonium sulphamate (130 mM) and N-(1-naphthyl)-ethylenediamine dihydrochloride (23 mM).
The reaction takes place at pH 7.4 in 50 mM tris-HCl buffer, in the presence of calcium (4 mM CaCl2); the sample to be assayed is incubated at 37° C. in the presence of substrate (200 μM GluβNa) and in the presence or absence of various concentrations of the inhibitor to be tested, in a final volume of 100 μl. The reaction is stopped by adding 10 μl of 3N HCl. A standard curve of β-naphthylamine in acid medium (add 10 μl of 0.1 N HCl) is produced in parallel.
The following are added to each well: […]

## N[C@H](CS)CCS(=O)(=O)[O-].[Na+] [EC33, sodium (S)-3-amino-4-mercaptobutylsulphonate]
[1]; 100 μg i.c.v.
  decrease in arterial pressure: −26 mmHg
  duration of hypotensive effect: 40 min
[1]; 45 mg/kg i.v.
  hypotensive effect: does not induce a significant hypotensive effect
[2]; EC33 30 μg i.c.v.
  formation of tritiated AngIII in hypothalamus: immediately blocked; also recorded: totally blocks
[2]; EC33 30 μg i.c.v. with [3H]AngII and 30 μg AngII
  half-life of [3H]AngII in hypothalamus: 5.38 ± 0.21 min
[2]; EC33 30 μg i.c.v., between 0.5 and 7 minutes
  [3H]AngII content in hypothalamus, times the content of the control test: approximately 11
[3]; AngII 10 ng with EC33 100 μg i.c.v.
  effect on the AngII-induced increase in arterial pressure: completely eliminated
[3]; AngIII 30 ng with EC33 i.c.v.
  modification of the effect on pressure of AngIII: ineffectiveness
[3]; hypertensive (SHR) anaesthetized rats
  maximum hypotensive effect (change in arterial pressure): −28 mmHg
[3]; normotensive (WKY) anaesthetized rats
  maximum hypotensive effect (change in arterial pressure): −22 mmHg

## CCCCc1nc(Cl)c(CO)n1Cc1ccc(-c2ccccc2-c2nn[nH]n2)cc1 [Losartan]
[3]; hypertensive rats
  antagonist effect on PC18-induced increase in arterial pressure: about 52%
[3]; normotensive rats
  antagonist effect on PC18-induced increase in arterial pressure: about 85%

## CSCC[C@H](N)CS [PC18, methioninethiol]
[4]
  times less active on APA than on APN: 1000
[3]; AngIII 10 ng with PC18 60 μg i.c.v., SHR rats
  effect on the pressure effect of AngIII: potentiation
[3]; PC18 60 μg i.c.v., normotensive rats
  increase in arterial pressure: +10 mmHg
[3]; PC18 alone 60 μg i.c.v., SHR rats
  duration of pressure effect: approximately 12 minutes

## angiotensin II (DRVYIHPF; Angiotensin-2; UniProt P01019 25-32, looked up) [ANGII, angiotensin II peptide available from Amersham or Sigma]
[3]; AngII 10 ng i.c.v., WKY and SHR rats
  maximum magnitude of increase in arterial pressure: approximately 10 mmHg

Source: patent US6340708B1, “Pharmaceutical composition comprising at least one aminopeptidase A inhibitor” (Institut National de la Sante et de la Recherche Medicale …, priority 1998, dated 2002)
